Reference: ChEMBL document CHEMBL1201862, “PubChem BioAssay data set” (2004)
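Values below derive from 48-hour exposures of cells grown in 96-well plates, with endpoints linearly interpolated between the two concentrations bracketing the appropriate inhibition level. Here, GI50 denotes the concentration required for 50% inhibition of growth.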 Activity calls are given as the source filed them. No stated cut-off is given here; in the data, active = GI50 up to about 1.1 µM and inactive = higher.

Key:
Experiment in all cases: NCI anticancer screen, dose series, 48 h
[1] = tested on: 786-0
[2] = tested on: A498
[3] = tested on: A549
[4] = tested on: ACHN
[5] = tested on: CAKI-1
[6] = tested on: CCRF-CEM
[7] = tested on: COLO 205
[8] = tested on: DU-145
[9] = tested on: EKVX
[10] = tested on: HCC 2998
[11] = tested on: HCT-116
[12] = tested on: HCT-15
[13] = tested on: HL-60
[14] = tested on: HOP-62
[15] = tested on: HOP-92
[16] = tested on: HT-29
[17] = tested on: Hs-578T
[18] = tested on: IGROV-1
[19] = tested on: K562
[20] = tested on: KM12
[21] = tested on: LOX IMVI
[22] = tested on: M14
[23] = tested on: MCF7
[24] = tested on: MDA-MB-231
[25] = tested on: MDA-MB-435
[26] = tested on: MDA-N
[27] = tested on: MOLT-4
[28] = tested on: Malme-3M
[29] = tested on: NCI-H226
[30] = tested on: NCI-H23
[31] = tested on: NCI-H460
[32] = tested on: NCI-H522
[33] = tested on: NCI/ADR-RES
[34] = tested on: OVCAR-3
[35] = tested on: OVCAR-4
[36] = tested on: OVCAR-5
[37] = tested on: OVCAR-8
[38] = tested on: PC-3
[39] = tested on: RPMI-8226
[40] = tested on: SF-268
[41] = tested on: SF-295
[42] = tested on: SF-539
[43] = tested on: SK-MEL-28
[44] = tested on: SK-MEL-2
[45] = tested on: SK-MEL-5
[46] = tested on: SK-OV-3
[47] = tested on: SN12C
[48] = tested on: SNB-19
[49] = tested on: SR
[50] = tested on: SW-620
[51] = tested on: T47D
[52] = tested on: TK-10
[53] = tested on: U-251
[54] = tested on: UACC-257
[55] = tested on: UACC-62

C/C(=C\[Si](C)(C)c1ccco1)C(C)(O)[C@H](C)O (stereo not given in full)
GI50 [1]: 44.9 µM (inactive)
GI50 [2]: 76 µM (inactive)
GI50 [3]: 48.2 µM (inactive)
GI50 [4]: 95.3 µM (inactive)
GI50 [5]: > 100 µM (inactive)
GI50 [6]: 32.9 µM (inactive)
GI50 [7]: 36.5 µM (inactive)
GI50 [8]: 38.4 µM (inactive)
GI50 [9]: 42.6 µM (inactive)
GI50 [10]: 34.8 µM (inactive)
GI50 [11]: 41.6 µM (inactive)
GI50 [12]: 31.6 µM
GI50 [13]: 26.9 µM (inactive)
GI50 [14]: > 100 µM (inactive)
GI50 [15]: 46.1 µM (inactive)
GI50 [16]: 41 µM (inactive)
GI50 [17]: 55.3 µM (inactive)
GI50 [18]: > 100 µM (inactive)
GI50 [19]: 32.3 µM (inactive)
GI50 [20]: 40.6 µM (inactive)
GI50 [21]: > 100 µM (inactive)
GI50 [22]: > 100 µM (inactive)
GI50 [23]: 32.9 µM (inactive)
GI50 [24]: > 100 µM (inactive)
GI50 [25]: 45.3 µM (inactive)
GI50 [26]: 54.6 µM (inactive)
GI50 [27]: 33.4 µM (inactive)
GI50 [28]: 52.8 µM (inactive)
GI50 [29]: 64.9 µM (inactive)
GI50 [30]: 30.2 µM (inactive)
GI50 [31]: 47.5 µM (inactive)
GI50 [32]: 30.3 µM (inactive)
GI50 [33]: 43.7 µM (inactive)
GI50 [34]: 54.5 µM (inactive)
GI50 [35]: 2.9 µM (inactive)
GI50 [36]: > 100 µM (inactive)
GI50 [37]: 55.1 µM (inactive)
GI50 [38]: 38.9 µM (inactive)
GI50 [39]: 30.8 µM (inactive)
GI50 [40]: 90.2 µM (inactive)
GI50 [41]: 49.4 µM (inactive)
GI50 [42]: > 100 µM (inactive)
GI50 [43]: > 100 µM (inactive)
GI50 [44]: 91.6 µM (inactive)
GI50 [45]: 40.7 µM (inactive)
GI50 [46]: > 100 µM (inactive)
GI50 [47]: 32.7 µM (inactive)
GI50 [48]: > 100 µM (inactive)
GI50 [49]: 33.8 µM (inactive)
GI50 [50]: 84.9 µM (inactive)
GI50 [51]: 16.4 µM (inactive)
GI50 [52]: 97.3 µM (inactive)
GI50 [53]: > 100 µM (inactive)
GI50 [54]: 24.6 µM (inactive)
GI50 [55]: > 100 µM (inactive)
